Test results: US20260159486A1, “BENZO[H]QUINAZOLINE-4-AMINE DERIVATIVES FOR THE TREATMENT OF CANCER” (Redona Therapeutics, Inc., priority 2021, published 2026)

Tested on: MDA-MB-231 cells
Assay: MDA-MB-231 proliferation assay
Format: cell-based
Conditions: Homo sapiens, MDA-MB-231, 72 h, YO-PRO-1 Iodide readout
In short: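 Cells seeded at 750 per well, treated next day for 72 h at 37 °C with 0.5% final DMSO. Cell number read by YO-PRO-1 fluorescence after lysis, normalized to DMSO (100%) and time-zero cells (0%). GI50 from 4-parameter logistic fit, maximum constrained to 100%.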

GI50: 100 to 2000 nM
SMILES: COCCN(C)c1c(O[C@H]2CC[C@H](N)CC2)ccc2c1CC(C)(C)c1c(N)ncnc1-2 [Example 13, 8-(trans-4-aminocyclohexoxy)-N7-(2-methoxyethyl)-N7,5,5-trimethyl-6H-benzo[h]quinazoline-4,7-diamine]
